From patent US20240002391A1, “4-ALKOXYPYRROLO[2,1-F][1,2,4]TRIAZINES AND PREPARATION AND USES THEREOF” (BioSplice Therapeutics, Inc., priority 2022, published 2024)

Biological target: recombinant DYRK1A kinase (Homo sapiens (Human), UniProt Q13627)
Assay: DYRK1A kinase assay (Ser/Thr 18 peptide Z-lyte FRET)
Assay type: biochemical
Details: DYRK1A kinase activity, Z-lyte Ser/Thr 18 peptide, 15 μM ATP; method text calls the value IC50; read-out: EC50 (the source's name)
Protocol: Representative compounds were screened using the assay procedure for DYRK1A kinase activity as described below.
Each compound was dissolved in DMSO as a 10 mM stock and used to prepare compound source plates. Serial dilution (1:3, 11-point dose-response curves from 10 μM to 0.00016 μM) and compound transfer was performed using the ECHO 550 (Labcyte, Sunnyvale, CA) into 1536-well black-walled round bottom plates (Coming).
The DYRK1A kinase assay was run using the Ser/Thr 18 peptide Z-lyte assay kit according to manufacturer's instructions (Life Technologies-a Division of Thermo-Fisher). This is a non-radioactive assay using fluorescence resonance energy transfer (FRET) between coumarin and fluorescein to detect kinase activity which is represented as a ratio of coumarin emission/fluorescein emission.
Briefly, recombinant DYRK1A kinase, ATP and Ser/Thr peptide 18 were prepared in 1X Kinase buffer to final concentrations of 0.25 μg/mL, 15 μM, and 4 μM respectively. The mixture was allowed to incubate with the representative compounds for one hour at room temperature. All reactions were performed in duplicate. Unphosphorylated (“0% Control”) and phosphorylated (“100% control”) forms of Ser/Thr 18 served as control reactions. Additionally, an 11-point dose-response curve of Staurosporine (luM top) was run to serve as a positive compound control.
After incubation, Development Reagent A was diluted in Development Buffer then added to the reaction and allowed to further incubate for one hour at room temperature. The plate was read at Ex 400 Em 455 to detect the coumarin signal and Ex 400 Em 520 to measure the signal (EnVision Multilabel Plate Reader, PerkinElmer).
The Emission ratio (Em) was calculated as a ratio of the coumarin (C) emission signal (at 445 nm)/Fluorescein (F) emission signal (at 520 nm). The percent phosphorylation was then calculated using the following formula: [1−((Em ratio X F100%)-C100%)/((C0%-C100%) +(Em ratio X (F100%−F0%)))]. Dose-response curves were generated, and inhibitory concentration (IC50) values were calculated using non-linear regression curve fit in the Dotmatics' Studies Software (Bishops Stortford, UK).

Row | IC50 [nM] | Structure (SMILES)
1 | 4.9 | COc1nc(NC2CCN(CC(F)F)CC2)nn2ccc(-c3ccc4nccn4c3)c12 [Compound 61, N-(1-(2,2-Difluoroethyl)piperidin-4-yl)-5-(imidazo[1,2-a]pyridin-6-yl)-4-methoxypyrrolo[2,1-f][1,2,4]triazin-2-amine]
2 | 8.5 | COc1nc(NC2CCN(C3COC3)CC2)nn2ccc(-c3ccc4nccn4c3)c12 [Compound 62, 5-(Imidazo[1,2-a]pyridin-6-yl)-4-methoxy-N-(1-(oxetan-3-yl)piperidin-4-yl)pyrrolo[2,1-f][1,2,4]triazin-2-amine]
3 | 4.6 | COc1nc(NC2CCN(C(C)=O)CC2)nn2ccc(-c3ccc4nccn4c3)c12 [Compound 63, 1-(4-((5-(Imidazo[1,2-a]pyridin-6-yl)-4-methoxypyrrolo[2,1-f][1,2,4]triazin-2-yl)amino)piperidin-1-yl)ethan-1-one]
4 | 5.6 | COc1nc(N[C@@H]2CCN(C)C[C@@H]2F)nn2ccc(-c3ccc4nccn4c3)c12 [Compound 67, N-((3S,4R)-3-Fluoro-1-methylpiperidin-4-yl)-5-(imidazo[1,2-a]pyridin-6-yl)-4-methoxypyrrolo[2,1-f][1,2,4]triazin-2-amine]
5 | 5.2 | COc1nc(NC2CC3(COC3)C2)nn2ccc(-c3ccc4nccn4c3)c12 [Compound 74, 5-(Imidazo[1,2-a]pyridin-6-yl)-4-methoxy-N-(2-oxaspiro[3.3]heptan-6-yl)pyrrolo[2,1-f][1,2,4]triazin-2-amine]
6 | 56.2 | COc1nc(N[C@@H]2[C@@H]3COC[C@@H]32)nn2ccc(-c3ccn4nccc4c3)c12 [Compound 80, N-((1R,5S,6s)-3-Oxabicyclo[3.1.0]hexan-6-yl)-4-methoxy-5-(pyrazolo[1,5-a]pyridin-5-yl)pyrrolo[2,1-f][1,2,4]triazin-2-amine]
7 | 62.6 | COc1nc(NC2CC3(C2)CN(C(=O)OC(C)(C)C)C3)nn2ccc(-c3ccn4nccc4c3)c12 [Compound 92, tert-Butyl 6-((4-methoxy-5-(pyrazolo[1,5-a]pyridin-5-yl)pyrrolo[2,1-f][1,2,4]triazin-2-yl)amino)-2-azaspiro[3.3]heptane-2-carboxylate]
8 | 194 | COc1nc(N[C@H](C)c2ccccn2)nn2ccc(-c3ccn4nccc4c3)c12 [Compound 93, (R)-4-Methoxy-5-(pyrazolo[1,5-a]pyridin-5-yl)-N-(1-(pyridin-2-yl)ethyl)pyrrolo[2,1-f][1,2,4]triazin-2-amine]
9 | 4.1 | COc1nc(N[C@H]2C[C@](C)(N)C2)nn2ccc(-c3ccn4nccc4c3)c12 [Compound 94, trans-N1-(4-Methoxy-5-(pyrazolo[1,5-a]pyridin-5-yl)pyrrolo[2,1-f][1,2,4]triazin-2-yl)-3-methylcyclobutane-1,3-diamine]
10 | 8.2 | COc1nc(N[C@H]2C[C@@](C)(N)C2)nn2ccc(-c3ccn4nccc4c3)c12 [Compound 95, cis-N1-(4-Methoxy-5-(pyrazolo[1,5-a]pyridin-5-yl)pyrrolo[2,1-f][1,2,4]triazin-2-yl)-3-methylcyclobutane-1,3-diamine]
11 | 1 | COc1nc(N[C@H]2C[C@](C)(NC(C)=O)C2)nn2ccc(-c3ccn4nccc4c3)c12 [Compound 96, N-(trans-3-((4-Methoxy-5-(pyrazolo[1,5-a]pyridin-5-yl)pyrrolo[2,1-f][1,2,4]triazin-2-yl)amino)-1-methylcyclobutyl)acetamide]
12 | 1.1 | COc1nc(N[C@H]2C[C@@](C)(NC(C)=O)C2)nn2ccc(-c3ccn4nccc4c3)c12 [Compound 97, N-(cis-3-((4-Methoxy-5-(pyrazolo[1,5-a]pyridin-5-yl)pyrrolo[2,1-f][1,2,4]triazin-2-yl)amino)-1-methylcyclobutyl)acetamide]

Row | Structure (SMILES) | IC50 [nM]
13 | CCOc1nc(N[C@H]2C[C@@H](OCCO)C2)nn2ccc(-c3ccn4nccc4c3)c12 [Compound 91, 2-(cis-3-((4-Ethoxy-5-(pyrazolo[1,5-a]pyridin-5-yl)pyrrolo[2,1-f][1,2,4]triazin-2-yl)amino)cyclobutoxy)ethan-1-ol] | 1.6
